Paper PMC10683482, “Offsetting Low-Affinity Carbohydrate Binding with Covalency to Engage Sugar-Specific Proteins for Tumor-Immune Proximity Induction” (ACS Central Science, 2023)
Like-named read-outs stand apart in the source and are kept apart here.

Tested on: monoclonal anti-23F antibody
Test: BLI affinity of rhamnose probes for monoclonal anti-23F
Type: binding, human
Settings: for koff: dissociation in 100 mM L-rhamnose; for anti-23F recognition of glycoside variant: 125 nM anti-23F association
Excerpt: Figure 1 Affinity determination of endogenous and monoclonal antibody sources for L-rhamnose glycoside variants. A. Chemical structures of rhamnose affinity probes. B/C. Approximation of antirhamnose antibody binding affinity for probes 1–3 using biolayer interferometry. B. Purified human serum IgG is used to estimate the affinity of endogenous polyclonal serum antirhamnose antibodies for each affinity probe 1–3. C. Monoclonal anti-23F antibody is used to estimate the potential affinity of vaccine-induced antirhamnose antibodies for each affinity probe 1–3. […] Association was monitored for 900 (B) or 600 (C) seconds. The loaded biosensor probe was then dipped into a dissociation solution of 100 mM L-rhamnose for 600 s. Association curves were fit to a two-phase association model in GraphPad Prism using Kfast to calculate kon. Dissociation curves were similarly fit to a two-phase decay using Kfast to calculate koff. TEXT PRINTED IN THE PICTURE: (B) no label printed: Polyclonal Human IgG: Kd ≈ 7 x10^-5 M | (C) no label printed: Monoclonal Anti-23F: Kd ≈ 6 x10^-6 M DOUBTS OF THE COPYIST ABOUT THIS PICTURE: Panel B, Kd ≈ 7 x10^-5 M: printed once in the plot with no link to a single curve, so it is unclear which of (1) α–O, (2) α–S and (3) β–S it applies to / Panel C, Kd ≈ 6 x10^-6 M: printed once in the plot with no link to a single curve, so it is unclear which of (1) α–O, (2) α–S and (3) β–S it applies to […]
The advancement of synthetic immunotherapeutic modalities targeting anti-rhamnose antibodies has been complicated by a lack of model monoclonal antibody to enable medicinal chemistry optimization. Previous studies relied on polyclonal antirhamnose sources (e.g., human/rabbit serum) for validation studies. We hypothesized that antibodies induced by vaccination against the 23F serotype of streptococcus pneumonia (which contains α-rhamnose) would serve as a source of novel monoclonal antibodies. FDA-approved vaccines (such as PPV23) can induce anti-23F antibodies, with patient-derived monoclonal anti-23F antibody sequences commercially available.[22]−[24] We proceeded to study anti-23F in BLI assays as done in Figure 1B (Figure 1C, association phase = 125 nM anti-23F). […] Furthermore, given the efficient recognition of α-rhamnose by both endogenous human polyclonal and monoclonal antirhamnose sources, it was selected as the ABD for subsequent cARM development.
General Notes and Materials […]
Biolayer Interferometry (BLI) General notes and Materials
IgG from human serum was purchased from Innovative Research (IHUI GGAP1000MG). Anti -23F antibody was purchased fr om Creative Biolabs (PABX -173). Biolayer Interferometry (BLI) was conducted using a ForteBio Octet Red96, and streptavidin biosensors (Sartorius - 18-5019) or ProG biosensors (Sartorius – 18-5082). For quench, a 5% skim milk (Nestle Carnation Instant Skim Milk) solution in 1X kinetics buffer was used. The instrument was set at 25 °C, with 1000 RPM, and acquisition rate of 5 Hz.
Each well of a black well plate (Greiner Bio -One - 655086) was filled with 200 µL of appropriate solution.
Dissociation buffer was comprised of L-rhamnose (100 mM, Sigma Aldrich – R3875-10G) in 1X kinetics buffer to reduce avidity contribution to dissociation rate (koff).
SDS-PAGE General notes and Materials […]
Carboxyfluorescein was purchased from Sigma Aldrich (21877 -5G-F). IgG from human serum was purchased from Innovative Research (IHUIGGAP1000MG). Anti -23F antibody was purchased from Creative Biolabs (PABX -173). Laemellie Buffer (2x) was purchased from Sigma Aldrich (S3401 -10VL).
Pre-cast Tris-Glycine Gels (4-20%) were purchased from Fisher Scientific (XP04202BOX). […]
A647-alkyne was purchased from Broadpharm (BP-28217). Gels were stained using Coomassie Stain from Bio Rad (1610786), and subsequently imaged using an Odyssey CLX imager. Gels were run at 90V for 15 minutes, followed by […]
ADCC Reporter Assay General notes and Materials […]

[1] = average of three anti-23F concentrations, read-out: Avg Kd

| Structure (SMILES) | kon (125 nM Anti-23F) | koff (125 nM Anti-23F) | Kd (125 nM Anti-23F, read-out: Kd) | anti-23F recognition of glycoside variant | kon (250 nM Anti-23F) | koff (250 nM Anti-23F) | Kd (250 nM Anti-23F, read-out: Kd) | kon (500 nM Anti-23F) | koff (500 nM Anti-23F) | Kd (500 nM Anti-23F, read-out: Kd) | Kd [1] |
| --- | --- | --- | --- | --- | --- | --- | --- | --- | --- | --- | --- |
| C[C@@H]1O[C@@H](SCc2cn(CCOCCNC(=O)OCCOCCOCCOCCOCCOCCOCCOCCNC(=O)CCCC[C@@H]3SC[C@@H]4NC(=O)N[C@@H]43)nn2)[C@H](O)[C@H](O)[C@H]1O [compound 2] | 770000 M⁻¹ s⁻¹ | 4.018 s⁻¹ | 5.2 µM | uniquely specific for α-glycoside variants | 730000 M⁻¹ s⁻¹ | 4.378 s⁻¹ | 6 µM | 560000 M⁻¹ s⁻¹ | 3.509 s⁻¹ | 6.2 µM | 5.8 ± 0.5 µM |
| C[C@@H]1O[C@@H](OCc2cn(CCOCCNC(=O)OCCOCCOCCOCCOCCOCCOCCOCCNC(=O)CCCC[C@@H]3SC[C@@H]4NC(=O)N[C@@H]43)nn2)[C@H](O)[C@H](O)[C@H]1O [compound 1] | 1.1e+06 M⁻¹ s⁻¹ | 5.591 s⁻¹ | 5.2 µM | uniquely specific for α-glycoside variants | 920000 M⁻¹ s⁻¹ | 5.773 s⁻¹ | 6.2 µM | 630000 M⁻¹ s⁻¹ | 4.673 s⁻¹ | 7.4 µM | 6.3 ± 1.1 µM |
